Experimental findings from patent US20200288710A1, “SUBSTITUTED SULPHONAMIDES FOR CONTROLLING ANIMAL PESTS” (BAYER CROPSCIENCE AKTIENGESELLSCHAFT, priority 2016, published 2020) are described below.

In experiment [1] the test system is Myzus persicae. Kind of experiment: Myzus persicae spray test (Chinese cabbage leaf discs). Format: in vivo. Conditions: foliar, 120 h, 500 g/ha, after 5-6 days, read-out: efficacy. The procedure:
Myzus persicae—Spray Test Solvent: 78 parts by weight of acetone • • 1.5 parts by weight of dimethylformamide Emulsifier: alkylaryl polyglycol ether To produce a suitable preparation of active compound, 1 part by weight of active compound is dissolved using the specified parts by weight of solvent and made up with water containing an emulsifier concentration of 1000 ppm until the desired concentration is attained. To produce further test concentrations, the formulation is diluted with emulsifier-containing water. Discs of Chinese cabbage leaves (Brassica pekinensis) infested by all stages of the green peach aphid (Myzus persicae) are sprayed with an active compound preparation of the desired concentration. After 5-6 days, the efficacy in % is determined. 100% means that all the aphids have been killed; 0% means that no aphids have been killed.

Experiment [2] relates to Myzus persicae. Kind of experiment: Myzus persicae oral test. Format: in vivo. As to conditions: 120 h, 20 ppm, oral uptake, after 5 days, read-out: efficacy. The procedure:
Myzus persicae—Oral Test Solvent: 100 parts by weight of acetone To produce a suitable preparation of active compound, 1 part by weight of active compound is dissolved using the specified parts by weight of solvent and made up with water until the desired concentration is attained. 50 μl of the active compound preparation are transferred into microtitre plates and made up to a final volume of 200 μl with 150 μl of IPL41 insect medium (33%+15% sugar). Subsequently, the plates are sealed with parafilm, which a mixed population of green peach aphids (Myzus persicae) within a second microtitre plate is able to puncture and imbibe the solution through it. After 5 days, the efficacy in % is determined. 100% means that all the aphids have been killed; 0% means that no aphids have been killed.

For `Cn1cc(C(=O)NS(=O)(=O)c2c(F)cccc2Br)nc1-c1c(F)cccc1F` [Example 432], the pest or weed control at 500 g/ha in the experiment on Myzus persicae [1] was 100%. Moreover, the pest or weed control at 20 ppm in the experiment with Myzus persicae [2] was 100%.
Turning to `Cn1cc(C(=O)NS(=O)(=O)c2ccccc2Cl)nc1-c1ncccc1Br` [Example 578], the pest or weed control at 500 g/ha in the experiment with Myzus persicae [1] is 100%. The pest or weed control at 20 ppm with Myzus persicae [2] worked out at 100%.
With `COc1ccc(OC)c(S(=O)(=O)NC(=O)c2cn(C)c(-c3cccc(Cl)c3Cl)n2)c1` [Example 462], in the experiment with Myzus persicae [1], the pest or weed control at 500 g/ha worked out at 90%. Besides, the pest or weed control at 20 ppm with Myzus persicae [2] turned out to be 90%.
Consider `CCc1[nH]c(-c2c(F)cccc2F)nc1C(=O)NS(=O)(=O)c1ccccc1C` [Example 125], for which, in the experiment on Myzus persicae [1], the pest or weed control at 500 g/ha turned out to be 90%. Besides, the pest or weed control at 20 ppm in the experiment with Myzus persicae [2] came to 100%.
For `CCc1[nH]c(-c2c(F)cccc2F)nc1C(=O)NS(=O)(=O)C(C)C` [Example 126], in that order: 90% and 90%.
In the same order, the values of `Cc1cccc([N+](=O)[O-])c1S(=O)(=O)NC(=O)c1cn(C)c(-c2c(F)cccc2F)n1` [Example 367] are 90% and 100%.
For `CCc1ccsc1S(=O)(=O)NC(=O)c1cn(C)c(-c2ncccc2F)n1` [Example 604], in that order: 90% and 90%.
For `Cn1nc(C(=O)NS(=O)(=O)c2ccccc2Cl)nc1-c1c(F)cccc1F` [Example 11], the pest or weed control at 500 g/ha in the experiment with Myzus persicae [1] came out at 100%. For the same compound, the pest or weed control at 20 ppm in the experiment on Myzus persicae [2] came out at 100%.
Turning to `COCCS(=O)(=O)NC(=O)c1cn(C)c(-c2c(F)cccc2Cl)n1` [Example 150], in the experiment on Myzus persicae [1], the pest or weed control at 500 g/ha turned out to be 90%. In the experiment with Myzus persicae [2], the pest or weed control at 20 ppm is 90%.
Consider `COc1ccc([N+](=O)[O-])c(S(=O)(=O)NC(=O)c2cn(C)c(-c3c(F)cccc3F)n2)c1` [Example 389], for which, in the experiment with Myzus persicae [1], the pest or weed control at 500 g/ha turned out to be 90%. In addition, the pest or weed control at 20 ppm in the experiment with Myzus persicae [2] came out at 100%.
For `COc1ccc(C)cc1S(=O)(=O)NC(=O)c1cn(C)c(-c2c(F)cccc2F)n1` [Example 390], the pest or weed control at 500 g/ha in the experiment on Myzus persicae [1] stood at 100%. Moreover, the pest or weed control at 20 ppm in the experiment with Myzus persicae [2] came out at 100%.
As for `COc1ccc(C)c(S(=O)(=O)NC(=O)c2cn(C)c(-c3cccnc3Cl)n2)c1` [Example 565], the pest or weed control at 500 g/ha in the experiment on Myzus persicae [1] was 100%. Besides, the pest or weed control at 20 ppm in the experiment on Myzus persicae [2] was found to be 100%.
Consider `COc1ccccc1S(=O)(=O)NC(=O)c1cn(C)c(-c2sccc2Cl)n1` [Example 549], for which the pest or weed control at 500 g/ha in the experiment on Myzus persicae [1] is 100%. The pest or weed control at 20 ppm in the experiment with Myzus persicae [2] stood at 100%.
For `COc1cccc(F)c1S(=O)(=O)NC(=O)c1cn(C)c(-c2c(F)cccc2F)n1` [Example 381], in the experiment with Myzus persicae [1], the pest or weed control at 500 g/ha turned out to be 100%. In addition, the pest or weed control at 20 ppm in the experiment on Myzus persicae [2] is 100%.
In the case of `Cn1cc(C(=O)NS(=O)(=O)c2ccccc2Cl)nc1-c1ccccc1[N+](=O)[O-]` [Example 524], the pest or weed control at 500 g/ha in the experiment with Myzus persicae [1] was 90%. In addition, the pest or weed control at 20 ppm in the experiment on Myzus persicae [2] stood at 100%.
In the same order, the values of `Cc1ccc(F)cc1S(=O)(=O)NC(=O)c1cn(C)c(-c2cccnc2Cl)n1` [Example 566] are 100% and 100%.
In the same order, the values of `COc1ccc(OC)c(S(=O)(=O)NC(=O)c2cn(C)c(-c3ncccc3Cl)n2)c1` [Example 598] are 90% and 100%.
For `COc1cc(C)ccc1S(=O)(=O)NC(=O)c1cn(C)c(-c2c(F)cccc2F)n1` [Example 447], in that order: 90% and 100%.
Turning to `Cn1cc(C(=O)NS(=O)(=O)c2ccccc2)nc1-c1c(F)cccc1Cl` [Example 112], the pest or weed control at 500 g/ha in the experiment on Myzus persicae [1] stood at 90%. Also, the pest or weed control at 20 ppm with Myzus persicae [2] is 100%.
In the same order, the values of `CCc1[nH]c(-c2c(F)cccc2F)nc1C(=O)NS(=O)(=O)c1ccccc1Cl` [Example 124] are 90% and 100%.
For `COc1ccccc1S(=O)(=O)NC(=O)c1cn(C)c(-c2cccnc2Cl)n1` [Example 492], in that order: 100% and 100%.
For `Cn1cc(C(=O)NS(=O)(=O)CC(F)(F)F)nc1-c1ccccc1Cl` [Example 66], in that order: 100% and 100%.
For the compound `Cn1cc(C(=O)NS(=O)(=O)c2ccccc2C(F)(F)F)nc1-c1ccccc1F` [Example 30], the pest or weed control at 500 g/ha with Myzus persicae [1] came out at 90%. For the same compound, the pest or weed control at 20 ppm with Myzus persicae [2] is 100%.
`Cc1ccccc1S(=O)(=O)NC(=O)c1nc(-c2c(F)cccc2F)c(C)[nH]1` [Example 147]: the pest or weed control at 500 g/ha with Myzus persicae [1] is 100%. For the same compound, in the experiment on Myzus persicae [2], the pest or weed control at 20 ppm worked out at 100%.
As for `Cn1cc(C(=O)NS(=O)(=O)c2ccccc2F)nc1-c1ccccc1Cl` [Example 57], the pest or weed control at 500 g/ha with Myzus persicae [1] is 100%. Besides, in the experiment with Myzus persicae [2], the pest or weed control at 20 ppm turned out to be 100%.
For the compound `Cn1cc(C(=O)NS(=O)(=O)c2sc(Cl)cc2Br)nc1-c1c(F)cccc1F` [Example 211], in the experiment with Myzus persicae [1], the pest or weed control at 500 g/ha worked out at 100%. The pest or weed control at 20 ppm in the experiment on Myzus persicae [2] turned out to be 100%.
As for `Cc1ccccc1-c1nc(C(=O)NS(=O)(=O)c2ccccc2Cl)cn1C` [Example 97], in the experiment with Myzus persicae [1], the pest or weed control at 500 g/ha is 100%. In the experiment on Myzus persicae [2], the pest or weed control at 20 ppm stood at 100%.
As to `Cc1cccc(C(F)(F)F)c1S(=O)(=O)NC(=O)c1cn(C)c(-c2ncccc2F)n1` [Example 563], the pest or weed control at 500 g/ha in the experiment on Myzus persicae [1] was determined as 100%. In addition, in the experiment with Myzus persicae [2], the pest or weed control at 20 ppm stood at 100%.
Take `COc1ccccc1S(=O)(=O)NC(=O)c1cn(C)c(-c2ncccc2Cl)n1` [Example 574]: the pest or weed control at 500 g/ha in the experiment with Myzus persicae [1] was found to be 100%. Besides, the pest or weed control at 20 ppm in the experiment on Myzus persicae [2] was 100%.
On to `COc1ccc(F)cc1S(=O)(=O)NC(=O)c1cn(C)c(-c2c(F)cccc2F)n1` [Example 17], for which the pest or weed control at 500 g/ha with Myzus persicae [1] worked out at 90%. Besides, in the experiment with Myzus persicae [2], the pest or weed control at 20 ppm came to 100%.
For `Cc1ccccc1S(=O)(=O)NC(=O)c1cc(C)n(-c2ncccc2Br)n1` [Example 297], in that order: 90% and 100%.
For `Cn1cc(C(=O)NS(=O)(=O)c2ccccc2Br)nc1-c1ncccc1Cl` [Example 585], in that order: 100% and 100%.
In the same order, the values of `COc1ccc(Cl)c(S(=O)(=O)NC(=O)c2nc(-c3c(F)cccc3F)c(C)[nH]2)c1` [Example 148] are 90% and 100%.
For `CCn1cc(C(=O)NS(=O)(=O)c2ccccc2OC)nc1-c1c(F)cccc1F` [Example 569], the pest or weed control at 500 g/ha in the experiment on Myzus persicae [1] came to 100%. Besides, the pest or weed control at 20 ppm in the experiment with Myzus persicae [2] stood at 100%.
On to `Cn1cc(C(=O)NS(=O)(=O)c2ccccc2Cl)nc1-c1c(F)cccc1F` [Example 91], for which the pest or weed control at 500 g/ha in the experiment on Myzus persicae [1] turned out to be 90%. For the same compound, the pest or weed control at 20 ppm in the experiment on Myzus persicae [2] stood at 100%.
Take `Cc1ccc(F)c(S(=O)(=O)NC(=O)c2cn(C)c(-c3c(F)cccc3F)n2)c1` [Example 454]: the pest or weed control at 500 g/ha in the experiment on Myzus persicae [1] was determined as 90%. In addition, the pest or weed control at 20 ppm in the experiment on Myzus persicae [2] was determined as 100%.
For `Cn1cc(C(=O)NS(=O)(=O)c2c(Cl)cccc2C(F)(F)F)nc1-c1ncccc1F` [Example 609], in that order: 90% and 100%.
